Legend:
Experiment in all cases: relative viability (nuclei count vs DMSO), 5 days (fraction); higher = more cells survive
R406 + AZD7762 = compound: COc1cc(Nc2ncc(F)c(Nc3ccc4c(n3)NC(=O)C(C)(C)O4)n2)cc(OC)c1OC [R406] + NC(=O)Nc1cc(-c2cccc(F)c2)sc1C(=O)N[C@H]1CCCNC1 [AZD7762] (partner 0.2 µM)
How it was run: (§1)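 Five library-drug doses in √10 steps were combined with a fixed anchor-drug dose, or a single drug was given alone, by pin tool to lung cancer cell lines in 1536-well plates the day after seeding. Nuclei were stained and counted after 5 days. Relative viability is the nuclei count in treated wells over that in vehicle wells, taken as the median of duplicate plates.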

R406 + Olaparib = compound: COc1cc(Nc2ncc(F)c(Nc3ccc4c(n3)NC(=O)C(C)(C)O4)n2)cc(OC)c1OC [R406] + O=C(c1cc(Cc2n[nH]c(=O)c3ccccc23)ccc1F)N1CCN(C(=O)C2CC2)CC1 [Olaparib] (partner 8 µM)
How it was run: as §1

Daporinad + Foretinib = compound: O=C(/C=C/c1cccnc1)NCCCCC1CCN(C(=O)c2ccccc2)CC1 [Daporinad] + COc1cc2c(Oc3ccc(NC(=O)C4(C(=O)Nc5ccc(F)cc5)CC4)cc3F)ccnc2cc1OCCCN1CCOCC1 [Foretinib] (partner 0.25 µM)
How it was run: as §1

Daporinad + Crizotinib = compound: O=C(/C=C/c1cccnc1)NCCCCC1CCN(C(=O)c2ccccc2)CC1 [Daporinad] + C[C@@H](Oc1cc(-c2cnn(C3CCNCC3)c2)cnc1N)c1c(Cl)ccc(F)c1Cl [Crizotinib] (partner 1 µM)
How it was run: as §1

| Cell Line | relative viability (R406 + AZD7762; first compound 0.08 µM) | relative viability (R406 + AZD7762; first compound 0.253 µM) | relative viability (R406 + AZD7762; first compound 0.8 µM) | relative viability (R406 + AZD7762; first compound 2.53 µM) | relative viability (R406 + AZD7762; first compound 8 µM) | relative viability (R406 + Olaparib; first compound 0.08 µM) | relative viability (R406 + Olaparib; first compound 0.253 µM) | relative viability (R406 + Olaparib; first compound 0.8 µM) | relative viability (R406 + Olaparib; first compound 2.53 µM) | relative viability (R406 + Olaparib; first compound 8 µM) | relative viability (Daporinad + Foretinib; first compound 0.0005 µM) | relative viability (Daporinad + Foretinib; first compound 0.001581 µM) | relative viability (Daporinad + Foretinib; first compound 0.005 µM) | relative viability (Daporinad + Foretinib; first compound 0.01581 µM) | relative viability (Daporinad + Crizotinib; first compound 0.0005 µM) | relative viability (Daporinad + Crizotinib; first compound 0.001581 µM) | relative viability (Daporinad + Crizotinib; first compound 0.005 µM) | relative viability (Daporinad + Crizotinib; first compound 0.01581 µM) |
| --- | --- | --- | --- | --- | --- | --- | --- | --- | --- | --- | --- | --- | --- | --- | --- | --- | --- | --- |
| NCI-H460 | 0.651 | 0.829 | 0.69 | 0.61 | 0.762 | 0.363 | 0.577 | 0.441 | 0.434 | 0.341 | 1.07 | 1.04 | 0.968 | 1.02 | 1.02 | 0.91 | 1.17 | 0.897 |
| NCI-H596 | 1.08 | 1.1 | 0.977 | 0.825 | 0.836 | 0.626 | 0.734 | 0.606 | 0.641 | 0.377 | 0.864 | 0.965 | 0.819 | 0.325 | 1.05 | 1.02 | 1.12 | 0.677 |
| NCI-H647 | 0.373 | 0.419 | 0.467 | 0.413 | 0.29 | 0.423 | 0.633 | 0.643 | 0.231 | 0.0598 | 1.32 | 1.18 | 1.06 | 1.28 | 1.27 | 0.974 | 1.43 | 1.11 |
| NCI-H650 | 0.822 | 1.16 | 1.02 | 0.593 | 0.788 | 0.342 | 0.42 | 0.435 | 0.313 | 0.301 | 1.08 | 1.09 | 1.01 | 1.08 | 0.736 | 0.749 | 0.75 | 0.798 |
| NCI-H727 | 0.675 | 0.666 | 0.535 | 0.681 | 0.747 | 0.533 | 0.67 | 0.666 | 0.75 | 0.663 | 1.01 | 0.908 | 0.899 | 0.691 | 0.713 | 0.786 | 0.938 | 0.698 |
| NCI-H838 | 0.915 | 1.02 | 1.04 | 0.853 | 0.741 | 0.725 | 0.798 | 0.908 | 0.248 | 0.142 | 1.06 | 1.11 | 0.965 | 0.567 | 0.886 | 0.92 | 0.959 | 0.675 |
| NCI-H1355 | 0.799 | 0.758 | 0.747 | 0.555 | 0.581 | 0.675 | 0.8 | 0.82 | 0.569 | 0.374 | 0.997 | 1.01 | 1.06 | 1.02 | 1.08 | 1.1 | 1.22 | 1.1 |
| NCI-H1437 | 1.04 | 1.19 | 1.13 | 1.05 | 1.05 | 0.611 | 0.622 | 0.647 | 0.546 | 0.431 | 1.17 | 1.24 | 1.34 | 1.22 | 0.795 | 0.956 | 1.02 | 0.855 |
| NCI-H1651 | 0.432 | 0.544 | 0.513 | 0.396 | 0.446 | 0.19 | 0.193 | 0.177 | 0.173 | 0.172 | 0.722 | 0.769 | 0.623 | 0.595 | 0.881 | 0.875 | 0.825 | 0.807 |
| NCI-H1666 | 1.12 | 0.937 | 0.893 | 0.892 | 0.773 | 0.74 | 0.797 | 0.725 | 0.824 | 0.687 | 0.962 | 0.958 | 0.91 | 0.943 | 1.25 | 1.06 | 1.03 | 0.97 |
| NCI-H1703 | 0.144 | 0.137 | 0.115 | 0.105 | 0.112 | 0.298 | 0.474 | 0.355 | 0.277 | 0.124 | 0.33 | 0.347 | 0.302 | 0.282 | 0.872 | 0.669 | 0.655 | 0.435 |
| NCI-H1734 | 0.58 | 0.582 | 0.679 | 0.228 | 0.313 | 0.641 | 0.654 | 0.688 | 0.542 | 0.417 | 0.871 | 0.875 | 0.938 | 0.679 | 0.713 | 0.715 | 0.737 | 0.464 |
| NCI-H1755 | 0.382 | 0.493 | 0.369 | 0.335 | 0.253 | 0.801 | 0.88 | 0.869 | 0.792 | 0.502 | 0.928 | 0.46 | 0.848 | 0.966 | 0.83 | 0.859 | 0.919 | 0.843 |
| NCI-H1915 | 0.687 | 0.751 | 0.735 | 0.614 | 0.614 | 0.286 | 0.267 | 0.263 | 0.237 | 0.237 | 1.16 | 1.07 | 1.17 | 1.08 | 0.911 | 0.933 | 0.982 | 0.915 |
| NCI-H1944 | 0.484 | 0.449 | 0.523 | 0.388 | 0.349 | 0.35 | 0.382 | 0.38 | 0.361 | 0.328 | 0.897 | 0.903 | 0.971 | 0.945 | 1.16 | 1.13 | 1.24 | 1.18 |
| NCI-H1975 |  | 0.757 | 0.771 | 0.341 | 0.325 | 0.706 | 0.862 | 0.783 | 0.311 | 0.204 | 0.892 | 0.952 | 0.966 | 0.931 | 0.996 | 0.899 | 1.12 | 0.881 |
| NCI-H1993 | 0.741 | 1.1 | 0.727 | 0.719 | 0.537 | 1.14 | 1.02 | 1.07 | 0.992 | 0.918 | 0.749 | 0.741 | 0.746 | 0.918 | 0.954 | 0.941 | 1.01 | 1.08 |
| NCI-H2085 | 1.03 | 1 | 1.02 | 0.72 | 0.726 | 0.79 | 0.823 | 0.788 | 0.738 | 0.458 | 0.872 | 0.973 | 1.11 | 0.781 | 0.874 | 0.825 | 0.868 | 0.841 |
| NCI-H2087 | 1.36 | 1.47 | 1.33 | 1.06 | 1.25 | 0.558 | 0.581 | 0.739 | 0.488 | 0.32 | 1.1 | 1.3 | 1.19 | 0.978 | 0.75 | 0.708 | 0.945 | 0.674 |
| NCI-H2126 | 0.937 | 1.12 | 1.08 | 0.909 | 0.858 | 0.933 | 0.943 | 0.933 | 0.855 | 0.557 | 1.24 | 1.15 | 1.06 | 1.34 | 1.06 | 1.03 | 1.09 | 1.01 |
| NCI-H2170 | 0.81 | 0.766 | 0.948 | 0.596 | 0.708 | 0.63 | 0.573 | 0.648 | 0.44 | 0.488 | 0.764 | 1.03 | 1.05 | 1.01 | 1.19 | 0.723 | 1.2 | 1.27 |
| NCI-H2347 | 0.785 | 0.81 | 0.776 | 0.422 | 0.529 | 0.556 | 0.583 | 0.604 | 0.531 | 0.47 | 1.13 | 1.17 | 1.35 | 1.33 | 0.841 | 0.892 | 0.826 | 0.775 |
| NCI-H2405 | 0.715 | 0.869 | 0.85 | 0.692 | 0.244 | 0.857 | 0.879 | 0.879 | 0.748 | 0.306 | 1.16 | 1.08 | 1.13 | 1.05 | 0.731 | 0.92 | 0.918 | 0.511 |
| NCI-H3122 | 1.06 | 1.04 | 0.969 | 0.804 | 0.924 | 0.637 | 0.739 | 0.69 | 0.566 | 0.625 | 0.869 | 0.955 | 0.988 | 1.05 | 0.237 | 0.29 | 0.261 | 0.238 |
| PC-3 [JPC-3] | 0.817 | 0.819 | 0.923 | 0.684 | 0.381 | 1.15 | 1.3 | 1.13 | 0.838 | 0.452 | 0.978 | 1.03 | 1.12 | 1.05 | 1 | 1.02 | 1.11 | 1.01 |
| PC-14 | 0.296 | 0.435 | 0.418 | 0.403 | 0.281 | 0.271 | 0.257 | 0.225 | 0.291 | 0.0748 | 0.985 | 1.06 | 1 | 1.01 | 0.911 | 0.876 | 0.913 | 0.651 |
| RERF-LC-KJ | 1 | 1.23 | 1.29 | 0.692 | 0.988 | 1.05 | 0.947 | 0.908 | 0.756 | 0.585 | 0.787 | 0.809 | 0.911 | 0.886 | 0.787 | 0.861 | 1.06 | 0.803 |

— the supplement of paper PMC10307832
